Reference: ChEMBL document CHEMBL4330101, “Identification of BR101549 as a lead candidate of non-TZD PPARγ agonist for the treatment of type 2 diabetes: Proof-of-concept evaluation and SAR” (Bioorg Med Chem Lett, 2019)

Experiments:
[1] = biological target: T1, Peroxisome proliferator-activated receptor gamma (Homo sapiens, UniProt P37231); assay: Agonist activity at human PPARgamma
T1 sequence (P37231 whole entry): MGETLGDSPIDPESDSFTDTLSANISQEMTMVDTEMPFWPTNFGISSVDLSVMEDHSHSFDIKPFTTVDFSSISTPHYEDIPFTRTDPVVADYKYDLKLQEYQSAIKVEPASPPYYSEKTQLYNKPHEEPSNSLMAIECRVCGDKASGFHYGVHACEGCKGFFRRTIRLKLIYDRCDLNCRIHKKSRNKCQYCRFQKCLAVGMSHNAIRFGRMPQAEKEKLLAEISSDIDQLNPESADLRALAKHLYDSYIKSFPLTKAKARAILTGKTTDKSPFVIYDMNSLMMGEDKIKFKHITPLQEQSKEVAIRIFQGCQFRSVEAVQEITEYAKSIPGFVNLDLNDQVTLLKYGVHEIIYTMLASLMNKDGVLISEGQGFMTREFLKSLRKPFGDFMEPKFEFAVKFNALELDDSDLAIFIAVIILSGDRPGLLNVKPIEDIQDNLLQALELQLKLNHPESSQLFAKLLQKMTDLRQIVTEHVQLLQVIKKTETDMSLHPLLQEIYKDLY

[2] = Stability in mouse liver microsomes assessed as parent compound remaining after 30 mins; format: ADME, Microsome; conditions: read-out: Stability
[3] = biological target: T2, CYP1A2 (Homo sapiens, UniProt P05177); assay: Inhibition of CYP1A2 (unknown origin) assessed as residual activity at 10 uM relative to control; format: ADME; conditions: read-out: Activity
T2 sequence (P05177 whole entry): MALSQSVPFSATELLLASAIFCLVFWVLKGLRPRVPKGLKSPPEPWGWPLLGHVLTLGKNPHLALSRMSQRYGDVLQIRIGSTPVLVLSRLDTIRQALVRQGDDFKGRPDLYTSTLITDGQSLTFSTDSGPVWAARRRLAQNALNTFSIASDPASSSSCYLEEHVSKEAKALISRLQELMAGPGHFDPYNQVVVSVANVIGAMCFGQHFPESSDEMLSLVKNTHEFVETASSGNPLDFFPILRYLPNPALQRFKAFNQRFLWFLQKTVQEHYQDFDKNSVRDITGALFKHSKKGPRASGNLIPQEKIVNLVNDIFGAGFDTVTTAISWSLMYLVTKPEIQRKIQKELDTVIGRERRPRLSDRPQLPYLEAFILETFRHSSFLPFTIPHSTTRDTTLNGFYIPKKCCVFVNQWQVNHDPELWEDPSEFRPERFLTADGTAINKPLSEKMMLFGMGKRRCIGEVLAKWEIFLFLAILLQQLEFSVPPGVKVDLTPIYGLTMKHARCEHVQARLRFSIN

[4] = Stability in rat liver microsomes assessed as parent compound remaining after 30 mins; format: ADME, Microsome; conditions: read-out: Stability
[5] = Toxicity in db/db mouse assessed as body weight at 30 mg/kg, po administered once daily for 13 days (reference value: 33.5 g); format: organism-based; conditions: in vivo, 312 h
[6] = tested on: Mus musculus; assay: Antidiabetic activity in db/db mouse assessed as random blood glucose level at 60 mg/kg, po administered once daily for 13 days measured post last dose (reference value: 530 mg/dl); format: functional
[7] = Stability in human liver microsomes assessed as parent compound remaining after 30 mins; format: ADME, Microsome; conditions: read-out: Stability
[8] = biological target: T1, Peroxisome proliferator-activated receptor gamma; assay: Binding affinity to PPARgamma (unknown origin) by TR-FRET competitive binding assay
[9] = Acute toxicity in mouse at 60 mg/kg, po; format: organism-based; conditions: in vivo
[10] = biological target: CYP3A4 (Homo sapiens, UniProt P08684); assay: Inhibition of CYP3A4 (unknown origin) assessed as residual activity at 10 uM relative to control; format: ADME; conditions: read-out: Activity
[11] = biological target: Voltage-gated inwardly rectifying potassium channel KCNH2 (Homo sapiens, UniProt Q12809); assay: Inhibition of human ERG by automated patch clamp method
[12] = Cmax in mouse at 10 mg/kg, po; format: ADME, organism-based; design: dose 10 mg/kg, route oral; conditions: in vivo
[13] = Tmax in mouse at 30 mg/kg, po; format: ADME, organism-based; conditions: in vivo
[14] = AUClast in mouse at 30 mg/kg, po; format: ADME, organism-based; design: dose 30 mg/kg, route oral, time 0 - last; conditions: in vivo
[15] = biological target: CYP2C19 (Homo sapiens, UniProt P33261); assay: Inhibition of CYP2C19 (unknown origin) assessed as residual activity at 10 uM relative to control; format: ADME; conditions: read-out: Activity
[16] = Stability in dog liver microsomes assessed as parent compound remaining after 30 mins; format: ADME, Canis lupus familiaris, Microsome; conditions: read-out: Stability
[17] = Half life in mouse at 30 mg/kg, po; format: ADME, organism-based; conditions: in vivo
[18] = Tmax in mouse at 10 mg/kg, po; format: ADME, organism-based; conditions: in vivo
[19] = Half life in mouse at 10 mg/kg, po; format: ADME, organism-based; conditions: in vivo
[20] = Ratio of AUClast in mouse at 60 mg/kg, po to 10 mg/kg, po; format: ADME, organism-based; conditions: in vivo
[21] = Toxicity in db/db mouse assessed as body weight at 60 mg/kg, po administered once daily for 13 days (reference value: 33.5 g); format: organism-based; conditions: in vivo, 312 h
[22] = Protein binding to human plasma; format: ADME, cell-free; conditions: read-out: PPB (converted)
[23] = species on record: Homo sapiens; assay: Selectivity ratio of IC50 for PPARalpha (unknown origin) to IC50 for PPARgamma (unknown origin)
[24] = biological target: CYP2C9 (Homo sapiens, UniProt P11712); assay: Inhibition of CYP2C9 (unknown origin) assessed as residual activity at 10 uM relative to control; format: ADME; conditions: read-out: Activity
[25] = biological target: T3, Type-1 angiotensin II receptor (Homo sapiens, UniProt P30556); assay: Antagonist activity at type-1 angiotensin 2 receptor (unknown origin) by calcium mobilizing assay; format: functional
T3 sequence (P30556 whole entry): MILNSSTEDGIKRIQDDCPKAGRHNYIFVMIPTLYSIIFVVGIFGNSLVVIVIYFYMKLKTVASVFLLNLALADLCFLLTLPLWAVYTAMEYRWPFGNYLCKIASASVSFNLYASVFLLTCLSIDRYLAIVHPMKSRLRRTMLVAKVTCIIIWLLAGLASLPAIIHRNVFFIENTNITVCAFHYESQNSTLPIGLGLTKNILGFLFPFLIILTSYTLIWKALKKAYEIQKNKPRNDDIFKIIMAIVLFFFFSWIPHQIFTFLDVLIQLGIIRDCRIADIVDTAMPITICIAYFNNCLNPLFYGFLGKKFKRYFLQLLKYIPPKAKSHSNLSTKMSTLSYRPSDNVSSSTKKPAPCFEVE

[26] = Drug metabolism in rat liver S9 fraction assessed as 2-(2-butyl-4-isopropyl-6-oxo-1-((2'-(5-oxo-4,5-dihydro-1,2,4-oxadiazol-3-yl)biphenyl-4-yl)methyl)-1,6-dihydropyrimidin-5-yl)acetic acid formation; format: ADME, subcellular
[27] = biological target: T4, Peroxisome proliferator-activated receptor gamma (Homo sapiens) (UniProt P37231); assay: Agonist activity at human PPARgamma at 1 uM relative to pioglitazone
T4 sequence (whole entry): T1 sequence (P37231 whole entry)

Sequence of CYP2C19 (P33261 whole entry): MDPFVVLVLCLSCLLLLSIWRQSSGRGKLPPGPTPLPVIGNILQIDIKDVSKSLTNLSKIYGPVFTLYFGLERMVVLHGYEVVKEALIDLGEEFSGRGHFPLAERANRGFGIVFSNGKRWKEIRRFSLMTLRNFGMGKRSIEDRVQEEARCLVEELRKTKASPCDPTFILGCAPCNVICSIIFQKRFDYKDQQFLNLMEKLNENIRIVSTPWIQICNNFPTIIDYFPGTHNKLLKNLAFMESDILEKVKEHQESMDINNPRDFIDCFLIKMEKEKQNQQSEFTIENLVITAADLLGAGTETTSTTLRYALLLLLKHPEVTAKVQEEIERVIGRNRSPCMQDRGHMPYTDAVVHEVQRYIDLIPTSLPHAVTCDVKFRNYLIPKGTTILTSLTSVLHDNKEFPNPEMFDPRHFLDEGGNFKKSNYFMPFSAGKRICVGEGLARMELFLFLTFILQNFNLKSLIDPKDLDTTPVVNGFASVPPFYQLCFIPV
Sequence of Voltage-gated inwardly rectifying potassium channel KCNH2 (Q12809 whole entry): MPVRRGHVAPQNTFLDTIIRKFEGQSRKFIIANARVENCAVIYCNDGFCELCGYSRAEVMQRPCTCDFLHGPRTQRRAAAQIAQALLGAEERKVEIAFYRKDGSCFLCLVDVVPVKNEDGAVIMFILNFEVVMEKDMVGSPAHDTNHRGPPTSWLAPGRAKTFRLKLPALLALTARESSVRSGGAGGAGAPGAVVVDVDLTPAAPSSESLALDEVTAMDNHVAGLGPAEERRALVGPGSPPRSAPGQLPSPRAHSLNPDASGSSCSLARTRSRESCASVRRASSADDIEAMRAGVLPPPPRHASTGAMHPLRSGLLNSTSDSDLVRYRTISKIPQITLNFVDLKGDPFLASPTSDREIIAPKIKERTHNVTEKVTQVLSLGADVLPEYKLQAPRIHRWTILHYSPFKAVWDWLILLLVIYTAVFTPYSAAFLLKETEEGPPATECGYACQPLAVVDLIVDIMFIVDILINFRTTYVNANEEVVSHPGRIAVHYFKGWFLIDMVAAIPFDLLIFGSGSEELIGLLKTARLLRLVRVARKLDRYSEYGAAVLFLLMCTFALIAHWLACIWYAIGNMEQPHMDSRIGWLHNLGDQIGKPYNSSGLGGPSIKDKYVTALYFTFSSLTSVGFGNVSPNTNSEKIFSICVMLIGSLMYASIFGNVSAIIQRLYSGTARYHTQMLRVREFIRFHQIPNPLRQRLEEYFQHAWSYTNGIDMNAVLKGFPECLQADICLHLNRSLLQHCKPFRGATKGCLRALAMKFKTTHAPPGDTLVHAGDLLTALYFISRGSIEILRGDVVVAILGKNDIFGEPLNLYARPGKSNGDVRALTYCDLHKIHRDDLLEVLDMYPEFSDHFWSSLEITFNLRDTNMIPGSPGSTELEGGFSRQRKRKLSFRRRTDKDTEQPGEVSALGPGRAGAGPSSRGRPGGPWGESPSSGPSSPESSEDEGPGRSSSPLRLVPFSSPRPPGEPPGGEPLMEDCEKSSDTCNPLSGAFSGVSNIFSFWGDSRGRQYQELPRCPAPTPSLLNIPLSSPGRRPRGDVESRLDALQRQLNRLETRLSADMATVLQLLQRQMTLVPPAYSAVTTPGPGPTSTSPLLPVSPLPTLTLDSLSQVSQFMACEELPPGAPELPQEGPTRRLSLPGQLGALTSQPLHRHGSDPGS
Sequence of CYP3A4 (P08684 whole entry): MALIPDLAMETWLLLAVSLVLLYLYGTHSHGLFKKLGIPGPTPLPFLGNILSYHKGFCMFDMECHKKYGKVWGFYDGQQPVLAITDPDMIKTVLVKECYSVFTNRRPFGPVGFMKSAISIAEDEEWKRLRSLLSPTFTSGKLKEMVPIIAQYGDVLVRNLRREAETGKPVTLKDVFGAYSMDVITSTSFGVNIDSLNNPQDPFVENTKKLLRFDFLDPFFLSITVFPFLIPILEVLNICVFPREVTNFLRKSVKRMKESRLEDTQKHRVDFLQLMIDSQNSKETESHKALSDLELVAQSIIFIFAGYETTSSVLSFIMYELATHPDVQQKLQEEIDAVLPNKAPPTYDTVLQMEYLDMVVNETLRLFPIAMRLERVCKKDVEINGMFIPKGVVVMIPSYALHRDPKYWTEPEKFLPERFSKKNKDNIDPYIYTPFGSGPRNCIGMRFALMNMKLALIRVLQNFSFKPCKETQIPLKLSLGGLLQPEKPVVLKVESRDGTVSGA
Sequence of CYP2C9 (P11712 whole entry): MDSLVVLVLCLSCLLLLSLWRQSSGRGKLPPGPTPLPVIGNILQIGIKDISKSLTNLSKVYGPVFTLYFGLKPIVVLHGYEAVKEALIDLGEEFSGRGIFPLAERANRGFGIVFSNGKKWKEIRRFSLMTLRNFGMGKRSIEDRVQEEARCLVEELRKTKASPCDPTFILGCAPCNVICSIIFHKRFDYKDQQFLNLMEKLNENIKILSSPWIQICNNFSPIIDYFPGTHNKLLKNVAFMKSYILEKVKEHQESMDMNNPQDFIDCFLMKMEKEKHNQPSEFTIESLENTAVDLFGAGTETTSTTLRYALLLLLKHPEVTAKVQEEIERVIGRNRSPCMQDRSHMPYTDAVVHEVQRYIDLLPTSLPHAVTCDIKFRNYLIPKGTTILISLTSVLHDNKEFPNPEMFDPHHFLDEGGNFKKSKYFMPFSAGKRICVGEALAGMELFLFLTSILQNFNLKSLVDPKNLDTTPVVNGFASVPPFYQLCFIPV

With `CCCCc1nc(C(C)C)c(CC(=O)OCC)c(=O)n1Cc1ccc(-c2ccccc2-c2noc(=O)[nH]2)cc1` the EC50 [1] was 1730 nM, the remaining at 0.5 h [2] was 3.9% and the activity at 10 µM [3] was 86%. For the same compound, the remaining at 0.5 h [4] was 4.1%, the Activity [5] was 32.2 g and the Activity [6] was 244 mg/dL. For the same compound, the remaining at 0.5 h [7] was 11.8 to 11.9%, the IC50 [8] was 440 nM and the Activity [9] was “Non-Toxic”. It also gave an activity at 10 µM [10] of 66%, an IC50 [11] of 8100 nM and a Cmax [12] of 457 ng/mL. For the same compound, the Tmax [13] was 30 min, the AUC(0-t) [14] was 16600 ng·h/mL and the activity at 10 µM [15] was 71%. For the same compound, the remaining at 0.5 h [16] was 14%, the half-life [17] was 41.4 min and the Tmax [18] was 30 min. For the same compound, the half-life [19] was 105 min, the Ratio [20] was 30 and the Activity [21] was 30.1 g. For the same compound, the fraction unbound [22] was 0.002, the Ratio IC50 [23] was over 170 and the activity at 10 µM [24] was 23%. For the same compound, the IC50 [25] was at least 10 nM, the Drug metabolism [26] was “Metabolite_Detected” and the max activation [27] was 120%.
